Measurements taken from US8969516B2, “Method of hydrolysis of peptide bond” (priority 2006, dated 2015).

Experiment: MALDI-TOF screening of Ni^2+ dependent hydrolysis in a combinatorial peptide library
Format: physicochemical
Conditions: Ni^2+ 2 mM, pH 8.2, 10 mM Tris, score=24/tm
Outline: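 Sublibraries of Ac-Gly-Ala-Ser/Thr-X-His-Z-Lys-Phe-Leu-NH2, randomized at Z and fixed at X, were hydrolyzed at 1 mM total peptide with 2 mM Ni2+ in 10 mM Tris, pH 8.2, at 37 °C or 45 °C. Cleavage was scored visually in MALDI-TOF spectra at 2, 4, 6 and 8 h.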

[1] = CH3CO-Gly-Ala-Ser-X-His-Z-Lys-Phe-Leu-NH2 library, 37° C.
[2] = CH3CO-Gly-Ala-Ser-X-His-Z-Lys-Phe-Leu-NH2 library, 45° C.
[3] = CH3CO-Gly-Ala-Thr-X-His-Z-Lys-Phe-Leu-NH2 library, 37° C.
[4] = CH3CO-Gly-Ala-Thr-X-His-Z-Lys-Phe-Leu-NH2 library, 45° C.

Ac-GASWHKKFL-NH2 [SWHK]
hydrolysis score from MALDI-TOF screening [1]: 4 (a score of 4 for detection at 6 hours) | hydrolysis score from MALDI-TOF screening [2]: 12 (a score of 12, if it was seen to be partially hydrolysed at 2 hours)

Ac-GASAHFKFL-NH2 [SAHF]
hydrolysis score from MALDI-TOF screening [1]: 0 (a score of 0 if no trace of the product of hydrolysis was seen after 8 hours of incubation) | hydrolysis score from MALDI-TOF screening [2]: 3 (a score of 3 for detection at 8 hours)

Ac-GASRHEKFL-NH2 [SRHE]
hydrolysis score from MALDI-TOF screening [1]: 0 (a score of 0 if no trace of the product of hydrolysis was seen after 8 hours of incubation) | hydrolysis score from MALDI-TOF screening [2]: 3 (a score of 3 for detection at 8 hours)

Ac-GATQHDKFL-NH2 [TQHD]
hydrolysis score from MALDI-TOF screening [3]: 0 (a score of 0 if no trace of the product of hydrolysis was seen after 8 hours of incubation) | hydrolysis score from MALDI-TOF screening [4]: 0 (a score of 0 if no trace of the product of hydrolysis was seen after 8 hours of incubation)

Ac-GASMHKKFL-NH2 [SMHK]
hydrolysis score from MALDI-TOF screening [1]: 3 (a score of 3 for detection at 8 hours) | hydrolysis score from MALDI-TOF screening [2]: 6 (a score of 6 for detection at 4 hours)

Ac-GASQHFKFL-NH2 [SQHF]
hydrolysis score from MALDI-TOF screening [1]: 3 (a score of 3 for detection at 8 hours) | hydrolysis score from MALDI-TOF screening [2]: 4 (a score of 4 for detection at 6 hours)

Ac-GATVHVKFL-NH2 [TVHV]
hydrolysis score from MALDI-TOF screening [3]: 0 (a score of 0 if no trace of the product of hydrolysis was seen after 8 hours of incubation) | hydrolysis score from MALDI-TOF screening [4]: 0 (a score of 0 if no trace of the product of hydrolysis was seen after 8 hours of incubation)

Ac-GATIHWKFL-NH2 [TIHW]
hydrolysis score from MALDI-TOF screening [3]: 3 (a score of 3 for detection at 8 hours) | hydrolysis score from MALDI-TOF screening [4]: 3 (a score of 3 for detection at 8 hours)

Ac-GASMHHKFL-NH2 [SMHH]
hydrolysis score from MALDI-TOF screening [1]: 0 (a score of 0 if no trace of the product of hydrolysis was seen after 8 hours of incubation) | hydrolysis score from MALDI-TOF screening [2]: 3 (a score of 3 for detection at 8 hours)

Ac-GASFHEKFL-NH2 [SFHE]
hydrolysis score from MALDI-TOF screening [1]: 0 (a score of 0 if no trace of the product of hydrolysis was seen after 8 hours of incubation) | hydrolysis score from MALDI-TOF screening [2]: 3 (a score of 3 for detection at 8 hours)

Ac-GATLHRKFL-NH2 [TLHR]
hydrolysis score from MALDI-TOF screening [3]: 0 (a score of 0 if no trace of the product of hydrolysis was seen after 8 hours of incubation) | hydrolysis score from MALDI-TOF screening [4]: 3 (a score of 3 for detection at 8 hours)

Ac-GATYHNKFL-NH2 [TYHN]
hydrolysis score from MALDI-TOF screening [3]: 0 (a score of 0 if no trace of the product of hydrolysis was seen after 8 hours of incubation) | hydrolysis score from MALDI-TOF screening [4]: 0 (a score of 0 if no trace of the product of hydrolysis was seen after 8 hours of incubation)

Ac-GATKHVKFL-NH2 [TKHV]
hydrolysis score from MALDI-TOF screening [3]: 3 (a score of 3 for detection at 8 hours) | hydrolysis score from MALDI-TOF screening [4]: 6 (a score of 6 for detection at 4 hours)

Ac-GATVHEKFL-NH2 [TVHE]
hydrolysis score from MALDI-TOF screening [3]: 0 (a score of 0 if no trace of the product of hydrolysis was seen after 8 hours of incubation) | hydrolysis score from MALDI-TOF screening [4]: 0 (a score of 0 if no trace of the product of hydrolysis was seen after 8 hours of incubation)

Ac-GATNHPKFL-NH2 [TNHP]
hydrolysis score from MALDI-TOF screening [3]: 0 (a score of 0 if no trace of the product of hydrolysis was seen after 8 hours of incubation) | hydrolysis score from MALDI-TOF screening [4]: 0 (a score of 0 if no trace of the product of hydrolysis was seen after 8 hours of incubation)

Ac-GASHHFKFL-NH2 [SHHF]
hydrolysis score from MALDI-TOF screening [1]: 3 (a score of 3 for detection at 8 hours) | hydrolysis score from MALDI-TOF screening [2]: 3 (a score of 3 for detection at 8 hours)

Ac-GASFHYKFL-NH2 [SFHY]
hydrolysis score from MALDI-TOF screening [1]: 3 (a score of 3 for detection at 8 hours) | hydrolysis score from MALDI-TOF screening [2]: 6 (a score of 6 for detection at 4 hours)

Ac-GATHHEKFL-NH2 [THHE]
hydrolysis score from MALDI-TOF screening [3]: 0 (a score of 0 if no trace of the product of hydrolysis was seen after 8 hours of incubation) | hydrolysis score from MALDI-TOF screening [4]: 0 (a score of 0 if no trace of the product of hydrolysis was seen after 8 hours of incubation)

Ac-GATHHHKFL-NH2 [THHH]
hydrolysis score from MALDI-TOF screening [3]: 3 (a score of 3 for detection at 8 hours) | hydrolysis score from MALDI-TOF screening [4]: 4 (a score of 4 for detection at 6 hours)

Ac-GASTHHKFL-NH2 [STHH]
hydrolysis score from MALDI-TOF screening [1]: 0 (a score of 0 if no trace of the product of hydrolysis was seen after 8 hours of incubation) | hydrolysis score from MALDI-TOF screening [2]: 3 (a score of 3 for detection at 8 hours)

Ac-GATMHWKFL-NH2 [TMHW]
hydrolysis score from MALDI-TOF screening [3]: 3 (a score of 3 for detection at 8 hours) | hydrolysis score from MALDI-TOF screening [4]: 3 (a score of 3 for detection at 8 hours)

Ac-GASIHHKFL-NH2 [SIHH]
hydrolysis score from MALDI-TOF screening [1]: 3 (a score of 3 for detection at 8 hours) | hydrolysis score from MALDI-TOF screening [2]: 3 (a score of 3 for detection at 8 hours)

Ac-GASFHTKFL-NH2 [SFHT]
hydrolysis score from MALDI-TOF screening [1]: 0 (a score of 0 if no trace of the product of hydrolysis was seen after 8 hours of incubation) | hydrolysis score from MALDI-TOF screening [2]: 0 (a score of 0 if no trace of the product of hydrolysis was seen after 8 hours of incubation)

Ac-GATRHEKFL-NH2 [TRHE]
hydrolysis score from MALDI-TOF screening [3]: 0 (a score of 0 if no trace of the product of hydrolysis was seen after 8 hours of incubation) | hydrolysis score from MALDI-TOF screening [4]: 0 (a score of 0 if no trace of the product of hydrolysis was seen after 8 hours of incubation)

Ac-GASQHTKFL-NH2 [SQHT]
hydrolysis score from MALDI-TOF screening [1]: 0 (a score of 0 if no trace of the product of hydrolysis was seen after 8 hours of incubation) | hydrolysis score from MALDI-TOF screening [2]: 0 (a score of 0 if no trace of the product of hydrolysis was seen after 8 hours of incubation)

Ac-GASGHNKFL-NH2 [SGHN]
hydrolysis score from MALDI-TOF screening [1]: 0 (a score of 0 if no trace of the product of hydrolysis was seen after 8 hours of incubation) | hydrolysis score from MALDI-TOF screening [2]: 0 (a score of 0 if no trace of the product of hydrolysis was seen after 8 hours of incubation)

Ac-GATHHVKFL-NH2 [THHV]
hydrolysis score from MALDI-TOF screening [3]: 0 (a score of 0 if no trace of the product of hydrolysis was seen after 8 hours of incubation) | hydrolysis score from MALDI-TOF screening [4]: 6 (a score of 6 for detection at 4 hours)

Ac-GASRHQKFL-NH2 [SRHQ]
hydrolysis score from MALDI-TOF screening [1]: 0 (a score of 0 if no trace of the product of hydrolysis was seen after 8 hours of incubation) | hydrolysis score from MALDI-TOF screening [2]: 0 (a score of 0 if no trace of the product of hydrolysis was seen after 8 hours of incubation)

Ac-GASPHNKFL-NH2 [SPHN]
hydrolysis score from MALDI-TOF screening [1]: 0 (a score of 0 if no trace of the product of hydrolysis was seen after 8 hours of incubation) | hydrolysis score from MALDI-TOF screening [2]: 0 (a score of 0 if no trace of the product of hydrolysis was seen after 8 hours of incubation)

Ac-GATWHDKFL-NH2 [TWHD]
hydrolysis score from MALDI-TOF screening [3]: 0 (a score of 0 if no trace of the product of hydrolysis was seen after 8 hours of incubation) | hydrolysis score from MALDI-TOF screening [4]: 0 (a score of 0 if no trace of the product of hydrolysis was seen after 8 hours of incubation)

Ac-GATFHPKFL-NH2 [TFHP]
hydrolysis score from MALDI-TOF screening [3]: 0 (a score of 0 if no trace of the product of hydrolysis was seen after 8 hours of incubation) | hydrolysis score from MALDI-TOF screening [4]: 0 (a score of 0 if no trace of the product of hydrolysis was seen after 8 hours of incubation)

Ac-GATPHDKFL-NH2 [TPHD]
hydrolysis score from MALDI-TOF screening [4]: 0 (a score of 0 if no trace of the product of hydrolysis was seen after 8 hours of incubation)

Ac-GASWHAKFL-NH2 [SWHA]
hydrolysis score from MALDI-TOF screening [1]: 0 (a score of 0 if no trace of the product of hydrolysis was seen after 8 hours of incubation) | hydrolysis score from MALDI-TOF screening [2]: 3 (a score of 3 for detection at 8 hours)

Ac-GATQHLKFL-NH2 [TQHL]
hydrolysis score from MALDI-TOF screening [3]: 0 (a score of 0 if no trace of the product of hydrolysis was seen after 8 hours of incubation) | hydrolysis score from MALDI-TOF screening [4]: 3 (a score of 3 for detection at 8 hours)

Ac-GASYHTKFL-NH2 [SYHT]
hydrolysis score from MALDI-TOF screening [1]: 0 (a score of 0 if no trace of the product of hydrolysis was seen after 8 hours of incubation) | hydrolysis score from MALDI-TOF screening [2]: 0 (a score of 0 if no trace of the product of hydrolysis was seen after 8 hours of incubation)

Ac-GATRHNKFL-NH2 [TRHN]
hydrolysis score from MALDI-TOF screening [3]: 0 (a score of 0 if no trace of the product of hydrolysis was seen after 8 hours of incubation) | hydrolysis score from MALDI-TOF screening [4]: 0 (a score of 0 if no trace of the product of hydrolysis was seen after 8 hours of incubation)

Ac-GATNHQKFL-NH2 [TNHQ]
hydrolysis score from MALDI-TOF screening [3]: 0 (a score of 0 if no trace of the product of hydrolysis was seen after 8 hours of incubation) | hydrolysis score from MALDI-TOF screening [4]: 0 (a score of 0 if no trace of the product of hydrolysis was seen after 8 hours of incubation)

Ac-GASYHPKFL-NH2 [SYHP]
hydrolysis score from MALDI-TOF screening [1]: 0 (a score of 0 if no trace of the product of hydrolysis was seen after 8 hours of incubation) | hydrolysis score from MALDI-TOF screening [2]: 0 (a score of 0 if no trace of the product of hydrolysis was seen after 8 hours of incubation)

Ac-GASKHPKFL-NH2 [SKHP]
hydrolysis score from MALDI-TOF screening [1]: 0 (a score of 0 if no trace of the product of hydrolysis was seen after 8 hours of incubation) | hydrolysis score from MALDI-TOF screening [2]: 0 (a score of 0 if no trace of the product of hydrolysis was seen after 8 hours of incubation)

Ac-GATLHAKFL-NH2 [TLHA]
hydrolysis score from MALDI-TOF screening [3]: 0 (a score of 0 if no trace of the product of hydrolysis was seen after 8 hours of incubation) | hydrolysis score from MALDI-TOF screening [4]: 0 (a score of 0 if no trace of the product of hydrolysis was seen after 8 hours of incubation)
